{"source": "ChEMBL document CHEMBL4507283", "about": "“Data for DCP probe BI-1935” (2021)", "key": {"[1]": {"target": "Cyclin-dependent kinase 4 (Homo sapiens) (UniProt P11802)", "sequence (P11802 whole entry)": "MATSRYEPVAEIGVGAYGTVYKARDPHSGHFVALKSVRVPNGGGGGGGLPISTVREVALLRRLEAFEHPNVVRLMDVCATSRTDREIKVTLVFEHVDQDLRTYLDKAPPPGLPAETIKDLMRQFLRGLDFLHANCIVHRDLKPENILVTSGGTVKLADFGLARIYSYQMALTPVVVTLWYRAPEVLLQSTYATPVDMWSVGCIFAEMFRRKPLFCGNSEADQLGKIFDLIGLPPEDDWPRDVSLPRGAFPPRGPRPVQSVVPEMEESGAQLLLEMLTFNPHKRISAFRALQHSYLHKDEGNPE", "details": "Compound concentration 1000.0 nM"}, "[2]": {"target": "Sigma non-opioid intracellular receptor 1 (Homo sapiens, UniProt Q99720)", "assay": "GPCRScan assay: inhibition of Sigma 1", "parameters": "radioligand conc. used [nm] 4.0 – 5.0, parental cells HEKT"}, "[3]": {"test_system": "Phosphatidylinositol 4,5-bisphosphate 3-kinase catalytic subunit alpha isoform (Homo sapiens), P42336 [E545A]", "details": "Compound concentration 1000.0 nM"}, "[4]": {"target": "5-hydroxytryptamine receptor 1B (Homo sapiens) (UniProt P28222)", "details": "Compound concentration 10.0 uM"}, "[5]": {"target": "Beta-adrenergic receptor kinase 1 (Homo sapiens) (UniProt P25098)", "details": "Compound concentration 1000.0 nM"}, "[6]": {"target": "Phosphatidylinositol 4-phosphate 5-kinase type-1 gamma (Homo sapiens) (UniProt O60331)", "details": "Compound concentration 1000.0 nM"}, "[7]": {"target": "Calpain-1 catalytic subunit (Homo sapiens) (UniProt P07384)", "sequence (P07384 whole entry)": "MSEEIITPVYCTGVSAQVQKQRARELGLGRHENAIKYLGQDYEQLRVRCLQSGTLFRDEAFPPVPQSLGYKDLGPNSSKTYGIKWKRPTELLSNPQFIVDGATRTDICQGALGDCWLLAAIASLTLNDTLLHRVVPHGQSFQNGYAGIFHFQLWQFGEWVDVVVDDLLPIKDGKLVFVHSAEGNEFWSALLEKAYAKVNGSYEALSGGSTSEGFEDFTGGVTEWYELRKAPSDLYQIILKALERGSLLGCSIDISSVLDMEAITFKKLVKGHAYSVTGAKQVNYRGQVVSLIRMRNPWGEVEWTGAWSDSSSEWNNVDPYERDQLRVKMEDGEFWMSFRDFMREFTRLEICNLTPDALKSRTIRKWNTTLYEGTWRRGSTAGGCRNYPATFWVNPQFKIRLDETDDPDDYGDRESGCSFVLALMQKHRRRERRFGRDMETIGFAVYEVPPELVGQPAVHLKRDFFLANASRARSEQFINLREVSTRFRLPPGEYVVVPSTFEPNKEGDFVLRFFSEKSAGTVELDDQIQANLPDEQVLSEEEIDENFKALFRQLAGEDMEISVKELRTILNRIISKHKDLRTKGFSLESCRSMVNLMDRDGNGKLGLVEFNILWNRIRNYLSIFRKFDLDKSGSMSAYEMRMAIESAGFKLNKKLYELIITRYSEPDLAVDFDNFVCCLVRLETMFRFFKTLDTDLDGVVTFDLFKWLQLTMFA", "assay": "MU-CALPAIN Eurofins-Panlabs selectivity data (BI)", "details": "Compound concentration 10.0 uM"}, "[8]": {"test_system": "Tyrosine-protein kinase ABL1 (Homo sapiens), P00519 [E255K]", "details": "Compound concentration 1000.0 nM"}, "[9]": {"target": "Phosphatidylinositol 4,5-bisphosphate 3-kinase catalytic subunit beta isoform (Homo sapiens) (UniProt P42338)", "details": "Compound concentration 1000.0 nM"}, "[10]": {"target": "Dual specificity mitogen-activated protein kinase kinase 5 (Homo sapiens) (UniProt Q13163)", "details": "Compound concentration 1000.0 nM"}, "[11]": {"target": "Histamine H2 receptor (Homo sapiens) (UniProt P25021)", "assay": "H2/H Eurofins-Panlabs selectivity data (BI)", "details": "Compound concentration 10.0 uM"}, "[12]": {"target": "Myotonin-protein kinase (Homo sapiens) (UniProt Q09013)", "details": "Compound concentration 1000.0 nM"}, "[13]": {"target": "Wee1-like protein kinase (Homo sapiens) (UniProt P30291)", "details": "Compound concentration 1000.0 nM"}, "[14]": {"target": "Aurora kinase C (Homo sapiens) (UniProt Q9UQB9)", "details": "Compound concentration 1000.0 nM"}, "[15]": {"target": "Cyclin-dependent kinase 4 (Homo sapiens) (UniProt P11802)", "details": "Compound concentration 1000.0 nM", "remark": "listed apart in the source"}, "[16]": {"target": "High affinity nerve growth factor receptor (Homo sapiens) (UniProt P04629)", "sequence (P04629 33-796 limits assumed)": "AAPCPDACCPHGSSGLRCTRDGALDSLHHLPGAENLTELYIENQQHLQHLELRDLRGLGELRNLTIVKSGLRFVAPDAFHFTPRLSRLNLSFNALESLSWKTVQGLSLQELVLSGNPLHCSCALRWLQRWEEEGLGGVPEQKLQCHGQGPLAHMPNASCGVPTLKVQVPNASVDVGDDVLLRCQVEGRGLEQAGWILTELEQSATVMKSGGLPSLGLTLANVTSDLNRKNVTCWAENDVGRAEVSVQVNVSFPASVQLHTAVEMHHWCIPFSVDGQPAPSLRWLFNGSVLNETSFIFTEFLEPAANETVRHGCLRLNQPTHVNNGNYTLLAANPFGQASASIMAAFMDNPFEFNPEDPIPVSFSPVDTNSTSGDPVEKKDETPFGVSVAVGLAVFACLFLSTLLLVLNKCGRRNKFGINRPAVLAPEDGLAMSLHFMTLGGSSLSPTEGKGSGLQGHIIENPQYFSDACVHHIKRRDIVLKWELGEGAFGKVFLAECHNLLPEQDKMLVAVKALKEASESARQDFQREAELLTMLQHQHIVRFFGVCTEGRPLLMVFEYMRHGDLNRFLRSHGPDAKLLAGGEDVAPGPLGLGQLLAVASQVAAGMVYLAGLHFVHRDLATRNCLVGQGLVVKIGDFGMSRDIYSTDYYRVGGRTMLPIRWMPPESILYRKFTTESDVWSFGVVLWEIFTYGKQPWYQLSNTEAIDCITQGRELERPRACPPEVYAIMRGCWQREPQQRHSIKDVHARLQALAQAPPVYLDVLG", "details": "Compound concentration 1000.0 nM"}, "[17]": {"target": "Adrenergic receptor alpha-1 (Rattus norvegicus) (UniProt P15823+P23944+P43140)", "assay": "ALPHA1/R Eurofins-Panlabs selectivity data (BI)", "type": "protein assay", "details": "Compound concentration 10.0 uM"}, "[18]": {"target": "Tyrosine-protein kinase receptor Tie-1 (Homo sapiens) (UniProt P35590)", "details": "Compound concentration 1000.0 nM"}, "[19]": {"target": "T1, 5-hydroxytryptamine receptor 3A (Homo sapiens) (UniProt P46098)", "T1 sequence (whole entry)": "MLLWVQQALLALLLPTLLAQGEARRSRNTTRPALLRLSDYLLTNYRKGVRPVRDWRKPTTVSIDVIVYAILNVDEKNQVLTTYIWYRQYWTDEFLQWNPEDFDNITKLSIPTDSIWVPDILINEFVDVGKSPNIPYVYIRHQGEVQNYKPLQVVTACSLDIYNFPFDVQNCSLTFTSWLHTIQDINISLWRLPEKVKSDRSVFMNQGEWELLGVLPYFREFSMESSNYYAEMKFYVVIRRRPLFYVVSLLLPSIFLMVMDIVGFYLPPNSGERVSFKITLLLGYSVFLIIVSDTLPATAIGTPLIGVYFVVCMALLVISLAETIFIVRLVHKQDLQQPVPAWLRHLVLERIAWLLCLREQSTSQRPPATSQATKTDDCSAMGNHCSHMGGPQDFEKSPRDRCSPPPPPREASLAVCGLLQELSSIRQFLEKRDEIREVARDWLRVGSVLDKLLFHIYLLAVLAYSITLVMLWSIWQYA", "details": "Compound concentration 10.0 uM"}, "[20]": {"target": "Vascular endothelial growth factor receptor 2 (Homo sapiens) (UniProt P35968)", "details": "Compound concentration 1000.0 nM"}, "[21]": {"target": "Atypical kinase COQ8B, mitochondrial (Homo sapiens) (UniProt Q96D53)", "sequence (Q96D53 whole entry)": "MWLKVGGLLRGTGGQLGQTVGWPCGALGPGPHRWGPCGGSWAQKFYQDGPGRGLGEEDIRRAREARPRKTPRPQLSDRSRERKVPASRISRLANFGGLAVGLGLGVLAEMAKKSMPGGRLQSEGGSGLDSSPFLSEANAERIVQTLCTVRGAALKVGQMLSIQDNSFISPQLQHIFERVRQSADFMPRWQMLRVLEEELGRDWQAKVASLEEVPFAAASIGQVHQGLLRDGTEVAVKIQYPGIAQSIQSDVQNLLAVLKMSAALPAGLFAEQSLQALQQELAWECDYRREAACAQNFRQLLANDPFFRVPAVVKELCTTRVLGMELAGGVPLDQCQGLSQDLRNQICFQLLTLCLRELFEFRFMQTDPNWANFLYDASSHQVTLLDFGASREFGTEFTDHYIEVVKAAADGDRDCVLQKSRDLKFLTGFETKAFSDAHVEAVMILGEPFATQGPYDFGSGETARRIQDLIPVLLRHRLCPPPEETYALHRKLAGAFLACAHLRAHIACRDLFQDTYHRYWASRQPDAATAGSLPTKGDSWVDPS", "details": "Compound concentration 1000.0 nM"}, "[22]": {"target": "Mitogen-activated protein kinase 13 (Homo sapiens) (UniProt O15264)", "details": "Compound concentration 1000.0 nM"}, "[23]": {"target": "Mitogen-activated protein kinase 8 (Homo sapiens) (UniProt P45983)", "details": "Compound concentration 1000.0 nM"}, "[24]": {"test_system": "Receptor-type tyrosine-protein kinase FLT3 (Homo sapiens), P36888 [D835H]", "details": "Compound concentration 1000.0 nM"}, "[25]": {"target": "Vascular endothelial growth factor receptor 3 (Homo sapiens) (UniProt P35916)", "details": "Compound concentration 1000.0 nM"}, "[26]": {"target": "Serine/threonine-protein kinase 32C (Homo sapiens) (UniProt Q86UX6)", "details": "Compound concentration 1000.0 nM"}, "[27]": {"target": "Serine/threonine-protein kinase 38 (Homo sapiens) (UniProt Q15208)", "details": "Compound concentration 1000.0 nM"}, "[28]": {"test_system": "Tyrosine-protein kinase ABL1 (Homo sapiens), P00519 [M351T]", "details": "Compound concentration 1000.0 nM"}, "[29]": {"target": "Calcium/calmodulin-dependent protein kinase type 1B (Homo sapiens) (UniProt Q6P2M8)", "sequence (Q6P2M8 whole entry)": "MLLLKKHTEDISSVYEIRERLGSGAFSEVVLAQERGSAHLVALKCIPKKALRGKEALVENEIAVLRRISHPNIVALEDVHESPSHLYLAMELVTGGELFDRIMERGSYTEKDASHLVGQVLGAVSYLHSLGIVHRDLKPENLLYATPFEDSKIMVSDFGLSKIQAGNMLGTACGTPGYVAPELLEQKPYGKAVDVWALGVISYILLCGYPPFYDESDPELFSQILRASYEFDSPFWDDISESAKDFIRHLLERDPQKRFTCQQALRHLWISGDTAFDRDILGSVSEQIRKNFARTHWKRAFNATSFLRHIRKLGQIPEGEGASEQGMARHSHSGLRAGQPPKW", "details": "Compound concentration 1000.0 nM"}, "[30]": {"target": "Tyrosine-protein kinase Mer (Homo sapiens) (UniProt Q12866)", "details": "Compound concentration 1000.0 nM"}, "[31]": {"target": "Thromboxane A2 receptor (Homo sapiens) (UniProt P21731)", "assay": "PROST_A2TP Eurofins-Panlabs selectivity data (BI)", "details": "Compound concentration 10.0 uM"}, "[32]": {"target": "Activin receptor type-1 (Homo sapiens) (UniProt Q04771)", "details": "Compound concentration 1000.0 nM"}, "[33]": {"target": "Cyclin-dependent kinase 8 (Homo sapiens) (UniProt P49336)", "sequence (P49336 whole entry)": "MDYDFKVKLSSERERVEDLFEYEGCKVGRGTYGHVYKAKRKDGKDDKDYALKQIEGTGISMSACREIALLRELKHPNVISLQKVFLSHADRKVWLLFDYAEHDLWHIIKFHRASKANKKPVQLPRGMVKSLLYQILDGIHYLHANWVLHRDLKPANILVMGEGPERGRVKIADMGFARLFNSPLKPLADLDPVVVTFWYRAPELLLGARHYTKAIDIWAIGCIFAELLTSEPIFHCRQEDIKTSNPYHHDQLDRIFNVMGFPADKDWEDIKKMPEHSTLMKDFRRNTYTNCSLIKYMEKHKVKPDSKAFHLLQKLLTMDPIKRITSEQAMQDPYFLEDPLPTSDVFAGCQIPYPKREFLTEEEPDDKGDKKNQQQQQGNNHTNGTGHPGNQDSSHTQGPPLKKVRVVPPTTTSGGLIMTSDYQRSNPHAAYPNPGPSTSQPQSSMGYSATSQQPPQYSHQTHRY", "details": "Compound concentration 1000.0 nM"}, "[34]": {"target": "Serine/threonine-protein kinase WNK3 (Homo sapiens) (UniProt Q9BYP7)", "sequence (Q9BYP7 whole entry)": "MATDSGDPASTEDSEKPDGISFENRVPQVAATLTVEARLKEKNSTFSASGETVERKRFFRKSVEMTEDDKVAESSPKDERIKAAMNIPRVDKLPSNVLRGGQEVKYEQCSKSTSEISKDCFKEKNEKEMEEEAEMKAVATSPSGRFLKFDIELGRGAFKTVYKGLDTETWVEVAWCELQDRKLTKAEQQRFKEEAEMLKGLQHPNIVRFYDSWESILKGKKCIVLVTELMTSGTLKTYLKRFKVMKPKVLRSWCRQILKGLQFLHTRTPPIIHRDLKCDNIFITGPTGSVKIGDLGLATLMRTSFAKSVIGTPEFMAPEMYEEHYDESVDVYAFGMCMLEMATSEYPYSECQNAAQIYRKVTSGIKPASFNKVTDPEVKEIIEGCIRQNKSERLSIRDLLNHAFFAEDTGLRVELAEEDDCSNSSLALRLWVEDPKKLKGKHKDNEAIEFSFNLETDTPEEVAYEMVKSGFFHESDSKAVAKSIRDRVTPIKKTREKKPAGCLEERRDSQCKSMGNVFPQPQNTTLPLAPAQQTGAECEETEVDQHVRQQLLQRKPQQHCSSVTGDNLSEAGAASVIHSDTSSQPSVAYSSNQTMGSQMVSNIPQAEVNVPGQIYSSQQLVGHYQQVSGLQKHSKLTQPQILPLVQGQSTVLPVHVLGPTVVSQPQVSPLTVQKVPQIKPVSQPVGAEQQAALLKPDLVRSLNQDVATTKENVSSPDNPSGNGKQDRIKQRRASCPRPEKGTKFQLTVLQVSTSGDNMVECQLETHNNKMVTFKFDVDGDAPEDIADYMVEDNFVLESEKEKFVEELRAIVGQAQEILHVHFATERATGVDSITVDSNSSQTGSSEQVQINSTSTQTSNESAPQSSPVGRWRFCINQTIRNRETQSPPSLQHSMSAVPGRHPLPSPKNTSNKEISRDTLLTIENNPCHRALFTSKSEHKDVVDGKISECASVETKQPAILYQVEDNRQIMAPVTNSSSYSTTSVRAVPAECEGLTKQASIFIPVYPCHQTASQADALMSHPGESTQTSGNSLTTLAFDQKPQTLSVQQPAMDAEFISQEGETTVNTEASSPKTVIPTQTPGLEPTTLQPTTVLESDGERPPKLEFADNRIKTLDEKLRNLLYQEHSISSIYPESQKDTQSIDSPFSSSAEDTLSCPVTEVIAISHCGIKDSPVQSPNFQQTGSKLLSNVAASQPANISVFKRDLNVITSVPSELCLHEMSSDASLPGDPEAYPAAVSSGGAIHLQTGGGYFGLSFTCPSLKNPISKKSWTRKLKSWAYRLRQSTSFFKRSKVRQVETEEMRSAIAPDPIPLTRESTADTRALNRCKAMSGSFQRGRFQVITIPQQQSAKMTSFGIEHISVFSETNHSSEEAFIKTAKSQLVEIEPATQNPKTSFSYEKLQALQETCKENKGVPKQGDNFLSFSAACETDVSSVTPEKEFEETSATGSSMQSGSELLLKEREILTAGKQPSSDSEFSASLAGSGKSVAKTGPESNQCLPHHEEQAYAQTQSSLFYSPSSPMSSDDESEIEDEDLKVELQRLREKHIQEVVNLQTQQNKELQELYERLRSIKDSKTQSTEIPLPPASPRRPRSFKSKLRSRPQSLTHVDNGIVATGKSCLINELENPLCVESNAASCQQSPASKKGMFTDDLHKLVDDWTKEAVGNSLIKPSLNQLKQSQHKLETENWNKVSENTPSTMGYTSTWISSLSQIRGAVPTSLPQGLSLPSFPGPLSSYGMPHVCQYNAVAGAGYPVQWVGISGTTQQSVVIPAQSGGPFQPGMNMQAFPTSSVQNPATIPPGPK", "details": "Compound concentration 1000.0 nM"}, "[35]": {"test_system": "Receptor-type tyrosine-protein kinase FLT3 (Homo sapiens), P36888 [UNDEFINED MUTATION]", "details": "Compound concentration 1000.0 nM"}, "[36]": {"test_system": "Epidermal growth factor receptor (Homo sapiens), P00533 [UNDEFINED MUTATION]", "details": "Compound concentration 1000.0 nM"}, "[37]": {"target": "Serine/threonine-protein kinase ICK (Homo sapiens) (UniProt Q9UPZ9)", "details": "Compound concentration 1000.0 nM"}, "[38]": {"target": "Receptor-type tyrosine-protein kinase FLT3 (Homo sapiens) (UniProt P36888)", "details": "Compound concentration 1000.0 nM"}}}
{"smiles": "CCOCCn1cc(C(=O)Nc2ccc(-n3nc(-c4cccnc4)cc3C(F)(F)F)cn2)ccc1=O", "note": "[BI 1935]", "values": [{"measurement": "residual activity", "setting": "[1]", "value": 93, "unit": "%"}, {"measurement": "Ki", "setting": "[2]", "value": 6.28, "unit": "µM"}, {"measurement": "residual activity", "setting": "[3]", "value": 100, "unit": "%"}, {"measurement": "inhibition", "setting": "[4]", "value": 18.8, "unit": "%"}, {"measurement": "residual activity", "setting": "[5]", "value": 75, "unit": "%"}, {"measurement": "residual activity", "setting": "[6]", "value": 100, "unit": "%"}, {"measurement": "residual activity", "setting": "[7]", "value": 96, "unit": "%"}, {"measurement": "residual activity", "setting": "[8]", "value": 69, "unit": "%"}, {"measurement": "residual activity", "setting": "[9]", "value": 82, "unit": "%"}, {"measurement": "residual activity", "setting": "[10]", "value": 84, "unit": "%"}, {"measurement": "residual activity", "setting": "[11]", "value": 106, "unit": "%"}, {"measurement": "residual activity", "setting": "[12]", "value": 100, "unit": "%"}, {"measurement": "residual activity", "setting": "[13]", "value": 100, "unit": "%"}, {"measurement": "residual activity", "setting": "[14]", "value": 88, "unit": "%"}, {"measurement": "residual activity", "setting": "[15]", "value": 81, "unit": "%"}, {"measurement": "residual activity", "setting": "[16]", "value": 100, "unit": "%"}, {"measurement": "residual activity", "setting": "[17]", "value": 94, "unit": "%"}, {"measurement": "residual activity", "setting": "[18]", "value": 81, "unit": "%"}, {"measurement": "inhibition", "setting": "[19]", "value": 2.27, "unit": "%"}, {"measurement": "residual activity", "setting": "[20]", "value": 81, "unit": "%"}, {"measurement": "residual activity", "setting": "[21]", "value": 100, "unit": "%"}, {"measurement": "residual activity", "setting": "[22]", "value": 97, "unit": "%"}, {"measurement": "residual activity", "setting": "[23]", "value": 72, "unit": "%"}, {"measurement": "residual activity", "setting": "[24]", "value": 87, "unit": "%"}, {"measurement": "residual activity", "setting": "[25]", "value": 92, "unit": "%"}, {"measurement": "residual activity", "setting": "[26]", "value": 100, "unit": "%"}, {"measurement": "residual activity", "setting": "[27]", "value": 91, "unit": "%"}, {"measurement": "residual activity", "setting": "[28]", "value": 100, "unit": "%"}, {"measurement": "residual activity", "setting": "[29]", "value": 79, "unit": "%"}, {"measurement": "residual activity", "setting": "[30]", "value": 83, "unit": "%"}, {"measurement": "residual activity", "setting": "[31]", "value": 98, "unit": "%"}, {"measurement": "residual activity", "setting": "[32]", "value": 75, "unit": "%"}, {"measurement": "residual activity", "setting": "[33]", "value": 100, "unit": "%"}, {"measurement": "residual activity", "setting": "[34]", "value": 76, "unit": "%"}, {"measurement": "residual activity", "setting": "[35]", "value": 56, "unit": "%"}, {"measurement": "residual activity", "setting": "[36]", "value": 100, "unit": "%"}, {"measurement": "residual activity", "setting": "[37]", "value": 99, "unit": "%"}, {"measurement": "residual activity", "setting": "[38]", "value": 87, "unit": "%"}]}
